Data reported in patent US20100267561A1, “HERBICIDAL PYRIDAZINONE DERIVATIVES” (priority 2007, published 2010).

Key:
Type in all cases: in vivo
[1] = test system: blackgrass (Alopecurus myosuroides); assay: Test B pre-/postemergence plant response; conditions: for Blackgrass plant response rating: 8 g ai/ha
How it was run: (§1)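 Visual scoring from 0 (no effect) to 100 (complete control) against untreated controls was done 13 to 15 days after greenhouse treatment. Chemicals were formulated in a surfactant-containing non-phytotoxic solvent and applied to soil preemergence or to 1- to 4-leaf (2-18 cm) plants postemergence.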

[2] = test system: catchweed bedstraw (Galium aparine); assay: Test B pre-/postemergence plant response; conditions: Preemergence; for Galium plant response rating: scale 0 to 100
How it was run: as §1

[3] = test system: cocklebur (Xanthium strumarium); assay: Test B pre-/postemergence plant response; conditions: for Cocklebur plant response rating: 8 g ai/ha
How it was run: as §1

[4] = test system: common (oilseed) sunflower (Helianthus annuus); assay: Test B pre-/postemergence plant response; conditions: Preemergence; for Sunflower plant response rating: scale 0 to 100
How it was run: as §1

[5] = test system: common ragweed (Ambrosia elation); assay: Test B pre-/postemergence plant response
How it was run: as §1

[6] = test system: giant foxtail (Setaria faberii); assay: Test B pre-/postemergence plant response
How it was run: as §1

[7] = test system: goosegrass (Eleusine indica); assay: Test B pre-/postemergence plant response
How it was run: as §1

[8] = test system: johnsongrass (Sorghum halepense); assay: Test B pre-/postemergence plant response
How it was run: as §1

[9] = test system: lambsquarters (Chenopodium album); assay: Test B pre-/postemergence plant response
How it was run: as §1

[10] = test system: large crabgrass (Digitaria sanguinalis); assay: Test B pre-/postemergence plant response
How it was run: as §1

[11] = test system: wheat (Triticum aestivum); assay: Test B pre-/postemergence plant response
How it was run: as §1

wild oat (Avena fatua) = assay: Test B pre-/postemergence plant response
How it was run: as §1

[12] = test system: yellow nutsedge (Cyperus esculentus); assay: Test B pre-/postemergence plant response
How it was run: as §1

[13] = test system: windgrass (Apera spica-venti); assay: Test B postemergence plant response; conditions: for Windgrass plant response rating: postemergence, 0-100 scale; for Plant response rating, Windgrass: Postemergence
Description: (§2) At the same time, plants selected from these crop and weed species and also winter barley (Hordeum vulgare), canarygrass (Phalaris minor), chickweed (Stellaria media) and windgrass (Apera spica-venti) were treated with postemergence applications of some of the test chemicals formulated in the same manner. Plants ranged in height from 2 to 18 cm (1- to 4-leaf stage) for postemergence treatments.
(§3) Plant species in the flooded paddy test consisted of rice (Oryza sativa), umbrella sedge (Cyperus difformis), ducksalad (Heteranthera limosa) and barnyardgrass (Echinochloa crus-galli) grown to the 2-leaf stage for testing. At time of treatment, test pots were flooded to 3 cm above the soil surface, treated by application of test compounds directly to the paddy water, and then maintained at that water depth for the duration of the test. Treated plants and controls were maintained in a greenhouse for 13 to 15 days, after which time all species were compared to controls and visually evaluated. Plant response ratings, summarized in Table B, are based on a scale of 0 to 100 where 0 is no effect and 100 is complete control. A dash (-) response means no test result.

[14] = test system: winter barley (Hordeum vulgare); assay: Test B postemergence plant response; conditions: for Plant response rating, Barley: Postemergence, scale 0 to 100, 0 no effect, 100 complete control
Description: as §2, §3

[15] = Preemergence, 16 g ai/ha, scale 0 to 100 (0 no effect, 100 complete control)
[16] = Preemergence, 31 g ai/ha, scale 0 to 100 (0 no effect, 100 complete control)
[17] = Preemergence, 62 g ai/ha, 0 to 100 scale, 0 no effect, 100 complete control
[18] = 31 g ai/ha, scale 0 to 100 (0 no effect, 100 complete control)
[19] = 62 g ai/ha, 0 to 100 scale, 0 no effect, 100 complete control
[20] = Preemergence, 8 g ai/ha, scale 0 to 100
[21] = Preemergence, 16 g ai/ha, scale 0 to 100
[22] = Postemergence, 16 g ai/ha, scale 0 to 100
[23] = Postemergence, 31 g ai/ha, scale 0 to 100
[24] = Postemergence, 62 g ai/ha, scale 0 to 100, 0 no effect, 100 complete control
[25] = 8 g ai/ha, postemergence, 0-100 scale
[26] = 16 g ai/ha, postemergence, 0-100 scale

C#CCOC(=O)Oc1cnn(C)c(=O)c1-n1nc(-c2ccc(Cl)cc2)cc1C [Compound 58] was tested, and the “Plant response rating, Blackgrass” value [1, 15] was 100, the “Plant response rating, Blackgrass” value [1, 16] was 100 and the “Plant response rating, Blackgrass” value [1, 17] was 100. The “Blackgrass plant response rating” value ([1]; Preemergence, scale 0 to 100) was 80, the “Plant response rating, Galium” value [2, 18] was 0 and the “Plant response rating, Galium” value [2, 19] was 0. For the same compound, the “Galium plant response rating” value ([2]; 8 g ai/ha) was 0, the “Galium plant response rating” value ([2]; 16 g ai/ha) was 0 and the “Plant response rating, Cocklebur” value [3, 15] was 0. For the same compound, the “Plant response rating, Cocklebur” value [3, 16] was 0, the “Plant response rating, Cocklebur” value [3, 17] was 0 and the “Cocklebur plant response rating” value ([3]; Preemergence, scale 0 to 100) was 0. For the same compound, the “Plant response rating, Sunflower” value [4, 18] was 0, the “Plant response rating, Sunflower” value [4, 19] was 0 and the “Sunflower plant response rating” value ([4]; 8 g ai/ha) was 0. The “Sunflower plant response rating” value ([4]; 16 g ai/ha) was 0, the “Plant response rating, Ragweed” value [5, 16] was 0 and the “Plant response rating, Ragweed” value [5, 17] was 0. The “Ragweed plant response rating” value [5, 20] was 0, the “Ragweed plant response rating” value [5, 21] was 0 and the “Plant response rating, Foxtail, Giant” value [6, 16] was 100. For the same compound, the “Plant response rating, Foxtail, Giant” value [6, 17] was 100, the “Foxtail, Giant plant response rating” value [6, 20] was 55 and the “Foxtail, Giant plant response rating” value [6, 21] was 95. For the same compound, the “Plant response rating, Goosegrass” value [7, 16] was 95, the “Plant response rating, Goosegrass” value [7, 17] was 100 and the “Goosegrass plant response rating” value [7, 20] was 70. For the same compound, the “Goosegrass plant response rating” value [7, 21] was 85, the “Plant response rating, Johnsongrass” value [8, 16] was 40 and the “Plant response rating, Johnsongrass” value [8, 17] was 60. For the same compound, the “Johnsongrass plant response rating” value [8, 20] was 0, the “Johnsongrass plant response rating” value [8, 21] was 0 and the “Plant response rating, Lambsquarters” value [9, 16] was 95. The “Plant response rating, Lambsquarters” value [9, 17] was 100, the “Lambsquarters plant response rating” value [9, 20] was 0 and the “Lambsquarters plant response rating” value [9, 21] was 0. The “Plant response rating, Crabgrass, Large” value [10, 16] was 90, the “Plant response rating, Crabgrass, Large” value [10, 17] was 100 and the “Crabgrass, Large plant response rating” value [10, 20] was 50. The “Crabgrass, Large plant response rating” value [10, 21] was 75, the “Plant response rating, Wheat” value [11, 16] was 40 and the “Plant response rating, Wheat” value [11, 17] was 80. The “Wheat plant response rating” value [11, 21] was 0, the “Plant response rating, Oat, Wild” value (wild oat (Avena fatua); [16]) was 80 and the “Plant response rating, Oat, Wild” value (wild oat (Avena fatua); [17]) was 95. For the same compound, the “Oat, Wild plant response rating” value (wild oat (Avena fatua); [20]) was 80, the “Oat, Wild plant response rating” value (wild oat (Avena fatua); [21]) was 80 and the “Plant response rating, Nutsedge, Yellow” value [12, 16] was 0. For the same compound, the “Plant response rating, Nutsedge, Yellow” value [12, 17] was 0, the “Nutsedge, Yellow plant response rating” value [12, 20] was 0 and the “Nutsedge, Yellow plant response rating” value [12, 21] was 0.

In the case of COCc1cc(-c2ccc(Br)cc2)nn1-c1c(O)cnn(C)c1=O [Compound 68], the “Blackgrass plant response rating” value ([1]; postemergence, 0-100 scale) is reported as 0, the “Plant response rating, Blackgrass” value [1, 22] is reported as 0 and the “Plant response rating, Blackgrass” value [1, 23] is reported as 50. The “Plant response rating, Blackgrass” value [1, 24] was 85, the “Cocklebur plant response rating” value ([3]; postemergence, 0-100 scale) was 0 and the “Plant response rating, Cocklebur” value [3, 22] was 0. For the same compound, the “Plant response rating, Cocklebur” value [3, 23] was 0, the “Plant response rating, Cocklebur” value [3, 24] was 0 and the “Ragweed plant response rating” value [5, 25] was 0. For the same compound, the “Ragweed plant response rating” value [5, 26] was 0, the “Plant response rating, Ragweed” value [5, 23] was 0 and the “Plant response rating, Ragweed” value [5, 24] was 0. For the same compound, the “Foxtail, Giant plant response rating” value [6, 25] was 10, the “Plant response rating, Foxtail, Giant” value [6, 22] was 60 and the “Plant response rating, Foxtail, Giant” value [6, 23] was 65. For the same compound, the “Plant response rating, Foxtail, Giant” value [6, 24] was 90, the “Goosegrass plant response rating” value [7, 25] was 0 and the “Goosegrass plant response rating” value [7, 26] was 0. The “Plant response rating, Goosegrass” value [7, 23] was 0, the “Plant response rating, Goosegrass” value [7, 24] was 5 and the “Johnsongrass plant response rating” value [8, 25] was 0. The “Johnsongrass plant response rating” value [8, 26] was 0, the “Plant response rating, Johnsongrass” value [8, 23] was 0 and the “Plant response rating, Johnsongrass” value [8, 24] was 30. For the same compound, the “Lambsquarters plant response rating” value [9, 25] was 0, the “Lambsquarters plant response rating” value [9, 26] was 0 and the “Plant response rating, Lambsquarters” value [9, 23] was 0. The “Plant response rating, Lambsquarters” value [9, 24] was 0, the “Crabgrass, Large plant response rating” value [10, 25] was 20 and the “Plant response rating, Crabgrass, Large” value [10, 22] was 60. For the same compound, the “Plant response rating, Crabgrass, Large” value [10, 23] was 80, the “Plant response rating, Crabgrass, Large” value [10, 24] was 85 and the “Wheat plant response rating” value [11, 25] was 0. The “Wheat plant response rating” value [11, 26] was 0, the “Plant response rating, Wheat” value [11, 23] was 0 and the “Plant response rating, Wheat” value [11, 24] was 0. For the same compound, the “Oat, Wild plant response rating” value (wild oat (Avena fatua); [25]) was 0, the “Oat, Wild plant response rating” value (wild oat (Avena fatua); [26]) was 0 and the “Plant response rating, Oat, Wild” value (wild oat (Avena fatua); [23]) was 5. For the same compound, the “Plant response rating, Oat, Wild” value (wild oat (Avena fatua); [24]) was 40, the “Nutsedge, Yellow plant response rating” value [12, 25] was 0 and the “Nutsedge, Yellow plant response rating” value [12, 26] was 0. For the same compound, the “Plant response rating, Nutsedge, Yellow” value [12, 23] was 0, the “Plant response rating, Nutsedge, Yellow” value [12, 24] was 0 and the “Windgrass plant response rating” value ([13]; 8 g ai/ha) was 0. The “Windgrass plant response rating” value ([13]; 16 g ai/ha) was 0, the “Plant response rating, Windgrass” value ([13]; 31 g ai/ha, scale 0 to 100) was 0 and the “Plant response rating, Windgrass” value ([13]; 62 g ai/ha, scale 0 to 100, 0 no effect, 100 complete control) was 35. For the same compound, the “Barley plant response rating” value [14, 25] was 0, the “Plant response rating, Barley” value ([14]; 16 g ai/ha) was 0 and the “Plant response rating, Barley” value ([14]; 31 g ai/ha) was 0. The “Plant response rating, Barley” value ([14]; 62 g ai/ha) was 0.
